Source: US20260008760A1, “DIPEPTIDYL PEPTIDASE 1 INHIBITORS AND USES THEREOF” (Insmed Incorporated, priority 2024, published 2026)
Like-named read-outs stand apart in the source and are kept apart here.

How the values were obtained:
DPP1 in HL-60 cells = DPP1 in HL-60 cells (Homo sapiens, UniProt P53634); assay: DPP1 Cell IC50 assay; format: cell-based; design: host or cells: HL-60 cells; conditions: 60 min pre-incubation, H-Gly-Phe-AFC substrate, average of n runs
In short: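 Intracellular DPP1 activity read as AFC fluorescence (Ex/Em 400/505 nm) after 30 min with H-Gly-Phe-AFC (500 μM stock), following 60 min compound pre-incubation at 37° C with HL-60 cells at 5×10^5 live cells per mL in PBS. IC50 by 4-parameter fit against DMSO-only controls.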

human DPP1 enzyme = human DPP1 enzyme (Homo sapiens, UniProt P53634); assay: Human DPP1 Enzyme IC50 Assay; format: biochemical; design: was first proteolytically processed into its mature form using recombinant human cathepsin L; purchased R&D Systems
In short: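 IC50 came from a four-parameter fit of activity relative to no-compound control, with fluorescence (Ex 350/Em 450 nm) read every 5 min for 90 min at 37 °C using 400 μM final H-Gly-Arg-AMC. Cathepsin L-matured human recombinant DPP1 was preincubated 10 min with compound at pH 6.0 (MES, DTT, 1% DMSO).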

[1] = read-out: Avg. IC50 (DPP1 Cell IC50 value ranges)
[2] = activated recombinant human DPP1, 400 μM H-Gly-Arg-AMC, 10 minutes pre-incubation at 37° C., pH 6.0, average of n runs, read-out: Avg. IC50 (Human DPP1 enzyme IC50 value ranges)

Sequence of DPP1 in HL-60 cells (P53634 25-463): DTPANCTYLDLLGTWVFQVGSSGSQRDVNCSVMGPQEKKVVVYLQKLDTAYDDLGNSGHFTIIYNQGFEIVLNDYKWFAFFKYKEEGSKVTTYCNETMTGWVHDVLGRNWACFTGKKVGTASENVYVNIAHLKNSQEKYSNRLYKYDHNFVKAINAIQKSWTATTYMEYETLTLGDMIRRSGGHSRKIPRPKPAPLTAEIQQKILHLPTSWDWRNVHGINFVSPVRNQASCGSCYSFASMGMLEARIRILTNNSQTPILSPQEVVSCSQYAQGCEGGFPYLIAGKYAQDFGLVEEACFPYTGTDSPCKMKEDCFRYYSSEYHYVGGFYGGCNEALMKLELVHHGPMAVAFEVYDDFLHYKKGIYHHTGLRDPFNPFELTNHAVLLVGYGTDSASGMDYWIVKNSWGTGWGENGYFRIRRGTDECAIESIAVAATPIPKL
Sequence of human DPP1 enzyme (P53634 25-134 limits assumed): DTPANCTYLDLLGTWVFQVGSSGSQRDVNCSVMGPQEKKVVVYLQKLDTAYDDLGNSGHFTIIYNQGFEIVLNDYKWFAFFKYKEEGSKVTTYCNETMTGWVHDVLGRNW
Sequence of human DPP1 enzyme (P53634 231-394 limits assumed): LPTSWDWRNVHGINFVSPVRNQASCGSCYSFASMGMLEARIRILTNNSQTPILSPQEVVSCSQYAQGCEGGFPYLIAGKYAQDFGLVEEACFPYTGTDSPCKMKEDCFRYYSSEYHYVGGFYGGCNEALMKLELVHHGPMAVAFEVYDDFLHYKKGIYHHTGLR
Sequence of human DPP1 enzyme (P53634 395-463 limits assumed): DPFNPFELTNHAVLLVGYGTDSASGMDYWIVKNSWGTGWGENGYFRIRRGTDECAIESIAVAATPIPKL

Row | SMILES | IC50 (DPP1 in HL-60 cells; [1]) [nM] | IC50 (human DPP1 enzyme; [2]) [nM] | IC50 (DPP1 in HL-60 cells; Avg. IC50 (DPP1 Cell IC50 value ranges)) [nM] | IC50 (human DPP1 enzyme) [nM]
1 | N#C[C@H](Cc1ccc(-c2ccc3c(c2)[C@]2(CCN(C#N)C2)SC3)cc1)NC(=O)[C@@H]1CNCCCO1 [Compound I18] | > 2.5 | > 15 |  | 
2 | N#C[C@H](Cc1ccc(-c2ccc3c(c2)C2(CN(C4COC4)C2)OC3=O)cc1)NC(=O)[C@@H]1CNCCCO1 [Compound 27, (2S)—N-[(1S)-1-cyano-2-{4-[1-(oxetan-3-yl)-3′-oxospiro[azetidine-3,1′-[2]benzofuran]-6′-yl]phenyl}ethyl]-1,4-oxazepane-2-carboxamide] | > 2.5 | > 15 |  | 
3 | N#C[C@H](Cc1ccc(-c2ccc3c(c2)C2(CCNC2)OC3=O)cc1)NC(=O)[C@@H]1CNCCCO1 (stereo partly drawn) [Compound 25, (2S)—N-[(1S)-1-cyano-2-(4-{3-oxospiro[2-benzofuran-1,3′-pyrrolidin]-6-yl}phenyl)ethyl]-1,4-oxazepane-2-carboxamide] | > 2.5 | > 15 |  | 
4 | CO[C@H]1CCO[C@H](C(=O)N[C@H](C#N)Cc2cc3c(cc2F)-c2ccc(C#N)cc2CO3)CNC1 (single isomer, unassigned) [Compound B13] | < 1 | < 5 |  | 
5 | N#C[C@H](Cc1ccc(-c2cnn([C@@H]3CCOC3)c2)cc1)NC(=O)[C@@H]1CNCCCO1 [Compound D4, (2S)—N-[(1S)-1-cyano-2-(4-{1-[(3R)-oxolan-3-yl]pyrazol-4-yl}phenyl)ethyl]-1,4-oxazepane-2-carboxamide] | > 2.5 | > 15 |  | 
6 | N#C[C@H](Cc1ccc(C23CCC(C#N)(CC2)CC3)cc1)NC(=O)[C@@H]1CNCCCO1 [Compound 4] | > 2.5 | > 15 |  | 
7 | N#CC(Cc1cc2c(cc1F)-c1cc(C3COC3)c(F)cc1CO2)NC(=O)[C@@H]1CNCCCCO1 (mixture of isomers) [Compound B10, (2S)—N-{1-cyano-2-[2,8-difluoro-9-(oxetan-3-yl)-6H-benzo[c]chromen-3-yl]ethyl}-1,4-oxazocane-2-carboxamide] | 1 to 2.5 | 5 to 15 |  | 
8 | CN1CCC2(CCc3cc4c(cc32)-c2cc(F)c(CC(C#N)NC(=O)[C@@H]3CNCCCO3)cc2OC4)CC1 (mixture of isomers) [Compound C3, (2S)—N-(1-cyano-2-{2-fluoro-1′-methyl-8,9-dihydro-6H-spiro[indeno[5,6-c]chromene-10,4′-piperidin]-3-yl}ethyl)-1,4-oxazepane-2-carboxamide] | > 2.5 | < 5 |  | 
9 | Cc1cc2cc(-c3ccc(C[C@@H](C#N)NC(=O)[C@@H]4CNCCCO4)cc3)cn2c(C)n1 [Compound A57] | > 2.5 | > 15 |  | 
10 | N#C[C@H](Cc1ccc(-c2ccc3c(c2)[C@@]2(CCN(C4COC4)C2)COC3)cc1)NC(=O)[C@@H]1CNCCCO1 [Compound I6] | > 2.5 | 5 to 15 |  | 
11 | N#C[C@H](Cc1cc2c(cc1F)-c1ccc(F)cc1CO2)NC(=O)[C@@H]1CNCCCO1 [Compound B35] |  |  | > 2.5 | > 15
12 | CO[C@@H]1CCNC[C@@H](C(=O)N[C@H](C#N)Cc2ccc(-c3ccc4c(n3)CCCN4)cc2F)OC1 [Compound A50, (2S,7R)—N-[(1S)-1-cyano-2-[2-fluoro-4-(5,6,7,8-tetrahydro-1,5-naphthyridin-2-yl)phenyl]ethyl]-7-methoxy-1,4-oxazocane-2-carboxamide] | 1 to 2.5 | < 5 |  | 
13 | CO[C@H]1CCO[C@H](C(=O)N[C@H](C#N)Cc2ccc(-c3ccc4c(n3)CCCN4)cc2)CNC1 [Compound A43, (2S,6S)—N—((S)-1-cyano-2-(4-(5,6,7,8-tetrahydro-1,5-naphthyridin-2-yl)phenyl)ethyl)-6-methoxy-1,4-oxazocane-2-carboxamide] | > 2.5 | > 15 |  | 
14 | N#C[C@H](Cc1ccc(-c2ccc3c(c2)[C@]2(CCCN(c4ccsc4)C2)SC3)cc1)NC(=O)[C@@H]1CNCCCO1 [Compound I13] | > 2.5 | > 15 |  | 
15 | C[C@@H]1NC[C@@H](C(=O)N[C@H](C#N)Cc2ccc(-c3ccc4c(F)nn(C)c4c3)cc2)OC[C@@H]1O [Compound A160] | 1 to 2.5 | 5 to 15 |  | 
16 | CCCCOCCn1c(=O)oc2ccc(-c3ccc(C[C@@H](C#N)NC(=O)[C@@H]4CNC[C@@H](OC)CCO4)cc3)cc21 [Compound F2, (2S,6S)—N-[(1S)-2-{4-[3-(2-butoxyethyl)-2-oxo-1,3-benzoxazol-5-yl]phenyl}-1-cyanoethyl]-6-methoxy-1,4-oxazocane-2-carboxamide] | > 2.5 | > 15 |  | 
17 | CCCCOCCn1c(=O)oc2ccc(-c3ccc(C[C@@H](C#N)NC(=O)[C@@H]4CNC(C)C(OC)CO4)c(F)c3)cc21 (stereo partly drawn) [Compound E1, (2S)—N-[(1S)-2-{4-[3-(2-butoxyethyl)-2-oxo-1,3-benzoxazol-5-yl]-2-fluorophenyl}-1-cyanoethyl]-6-methoxy-5-methyl-1,4-oxazepane-2-carboxamide] | 1 to 2.5 | < 5 |  | 
18 | CO[C@H]1CCO[C@H](C(=O)N[C@H](C#N)Cc2ccc(-c3ccc4c(n3)CCCN4)cc2F)CNC1 [Compound A49, (2S,6S)—N-[(1S)-1-cyano-2-[2-fluoro-4-(5,6,7,8-tetrahydro-1,5-naphthyridin-2-yl)phenyl]ethyl]-6-methoxy-1,4-oxazocane-2-carboxamide] | > 2.5 | 5 to 15 |  | 
19 | CO[C@H]1CCO[C@H](C(=O)N[C@H](C#N)Cc2cc3cc(-c4cc5c(C)nc(C)cn5c4)ccc3s2)CNC1 (single isomer, unassigned) [Compound A45] | > 2.5 | > 15 |  | 
20 | N#C[C@H](Cc1ccc(-c2cnc3c(c2)NCCC3)cc1)NC(=O)[C@@H]1CNCCCO1 [Compound A41, (2S)—N-[(1S)-1-cyano-2-[4-(5,6,7,8-tetrahydro-1,5-naphthyridin-3-yl)phenyl]ethyl]-1,4-oxazepane-2-carboxamide] | > 2.5 | > 15 |  | 
21 | N#C[C@H](Cc1ccc(-c2cc3cnccn3c2)cc1)NC(=O)[C@@H]1CNCCCO1 [Compound A54] | > 2.5 | > 15 |  | 
22 | N#C[C@H](Cc1ccc(-c2ccc3c(c2)N(C(N)=O)CCC3)cc1)NC(=O)[C@@H]1CNCCCO1 [Compound A20, 7-{4-[(2S)-2-cyano-2-[(2S)-1,4-oxazepan-2-ylformamido]ethyl]phenyl}-3,4-dihydro-2H-quinoline-1-carboxamide] | > 2.5 | > 15 |  | 
23 | Cc1sc(-c2ccc(C[C@@H](C#N)NC(=O)[C@@H]3CNCCCO3)cc2)nc1-c1cc[nH]c(=O)c1 [Compound D9, (2S)—N-[(1S)-1-cyano-2-{4-[5-methyl-4-(2-oxo-1H-pyridin-4-yl)-1,3-thiazol-2-yl]phenyl}ethyl]-1,4-oxazepane-2-carboxamide] | > 2.5 | > 15 |  | 
24 | CO[C@H]1CCO[C@H](C(=O)N[C@H](C#N)Cc2ccc(-c3ccc4c(F)nn(C)c4c3)cc2F)CNC1 [Compound A165] | 1 to 2.5 | 5 to 15 |  | 
25 | COC1CNC[C@@H](C(=O)N[C@H](C#N)Cc2cnc(-c3ccc4c(F)nn(C)c4c3)s2)OC1 (stereo partly drawn) [Compound A169] | < 1 | < 5 |  | 
26 | CN1C(=O)C2(CCNCC2)c2cc(-c3ccc(C[C@@H](C#N)NC(=O)[C@@H]4CNCCCO4)cc3)ccc21 [Compound 23, (2S)—N-[(1S)-1-cyano-2-(4-{1-methyl-2-oxospiro[indole-3,4′-piperidin]-5-yl}phenyl)ethyl]-1,4-oxazepane-2-carboxamide] | > 2.5 | 5 to 15 |  | 
27 | COC1CNC[C@@H](C(=O)N[C@H](C#N)Cc2ccc(-c3ccc4c(c3)CCC(=O)N4C)cc2)OC1 (stereo partly drawn) [Compound A146] | < 1 | < 5 |  | 
